71 compounds from ChEMBL document CHEMBL3507680, “University of Dundee, Gates Library screen for HepG2 cell viability” can be followed below.

The nature of the data set: Human HepG2 cell viability assay in 384 well format. The arrangement: dose 125 nL, time 70.5 hour; cytotoxicity at 70.5 h: concentration not given beside the values. It counts as toxicity, cell-based. As to conditions: HepG2 cells, read-out: Inhibition.
As to `CSc1ncccc1C(=O)NCCC(O)c1cccs1` (stereo unspecified), the cytotoxicity at 70.5 h is -2.95%. Turning to `Cc1ccc(S(=O)(=O)NC(=O)c2cccc(OCC(N)=O)c2)s1`, the cytotoxicity at 70.5 h is -3.78%. As for `c1cnc(N2CCOCC3(C2)CN(c2nccs2)CCO3)nc1` (stereo unspecified), the cytotoxicity at 70.5 h was -7.1%. Next, `COc1cc(C)nc(N2CCN(C(=O)CCc3ccco3)CC2)n1`: -2.64%.

With `O=S(=O)(NCCc1c[nH]c2cc(F)ccc12)C1CCOC1` (stereo unspecified), the cytotoxicity at 70.5 h was determined as 0.583%. Next, `COc1cc(F)c(C(C)NC(=O)c2cccnc2C)cc1OC` (stereo unspecified): 2.35%; `CNC(=O)C(C)(C)N1CCC[C@H]1C(=O)NCCN1CCOCC1`: -6.76%. Next, `CCc1nccn1C1CCCN(C(=O)c2ccc3[nH]cnc3c2)C1` (stereo unspecified): -5.72%. Next, `CC(C)C[C@@H](CO)n1cc(-c2cncnc2)nn1`: 1.71%. On to `CCOC(=O)CCCc1ccc2c(c1)CC(=O)N2`, for which the cytotoxicity at 70.5 h is -18.2%. Regarding `NC(=O)NC1CCN(Cc2ccccc2OCC(F)(F)F)CC1`, the cytotoxicity at 70.5 h is -4.28%.

Consider `CN1CCN(C(=O)c2cnsn2)c2cc(F)ccc21`, for which the cytotoxicity at 70.5 h worked out at 1.4%. Next, `CCN(CC(C)O)C(=O)Nc1cnn(CCOC)c1` (stereo unspecified): 6.07%; `COC(=O)Cn1cccc(S(=O)(=O)N2CCC(C)CC2)c1=O`: 41%. Next, `CCOc1ccccc1N1CCN(c2nnc(C)o2)CC1`: -13.5%.

In the case of `CN(C)CCOCc1ncn2c1CN(c1ncc(F)cn1)CCC2`, the cytotoxicity at 70.5 h is -3.65%. Take `Cn1ncc(N2CCC(CNC3CC(C)(C)CC(C)(C)C3)C2)cc1=O` (stereo unspecified): the cytotoxicity at 70.5 h is 7.5%. Next, `COCc1cccc(NC(=O)NCCCN(C)S(C)(=O)=O)c1`: -10.1%; `CCCc1cnc(C)nc1N1CCC(Cc2ccc(CO)cc2)C1` (stereo unspecified): -10.5%. Next, `c1ccc(CN2CCN(C3CCOC4(CCOCC4)C3)CC2)nc1` (stereo unspecified): -16.9%.

For `CCNc1cc2c(nn1)CCN(C(=O)C1Cc3ccccc3O1)C2` (stereo unspecified), the cytotoxicity at 70.5 h is -12.9%. For `CC(C)Oc1cccc(F)c1C(C(=O)O)N1CCCC1` (stereo unspecified), the cytotoxicity at 70.5 h was -11.9%. In the case of `CC(C)NC(=O)[C@@H]1CC[C@@H]2[C@@H](CCN2Cc2ccc3ccccc3n2)O1`, the cytotoxicity at 70.5 h is -8.11%.

Take `CCOC[C@H]1CC[C@H]2[C@H](CCN2Cc2c(C)noc2C)O1`: the cytotoxicity at 70.5 h is -3.26%.

In the case of `O=C(NCC1CC1)C1CCC2(CCN(C(=O)c3cnccn3)CC2)O1` (stereo unspecified), the cytotoxicity at 70.5 h came to 9.2%. Next, `CN1CCN(C(=O)CCc2ccccc2)Cc2cccnc21`: 16.1%; `CCOC(C)C(=O)Nc1cc(S(=O)(=O)NC2CC2)ccc1F` (stereo unspecified): 6.35%; `Cc1cccc(C(=O)NCCNCC2CNc3ccnn3C2)c1` (stereo unspecified): -1.43%. Next, `O=C(NCc1ccc(N2CCCC2)nc1)N1CCc2sccc2C1`: -0.866%; `Cc1ccc(-c2nc(CN3CCn4c(nnc4C4CC4)C3)cs2)o1`: 14.8%.

`c1ccc(Cn2cncn2)c(CNCC2CNc3ccnn3C2)c1` (stereo unspecified): the cytotoxicity at 70.5 h was -13.5%. `OC1CCCN(Cc2cn(CC3CCN(C4CCSCC4)CC3)nn2)C1` (stereo unspecified): the cytotoxicity at 70.5 h is -2.84%.

Regarding `C[C@@H]1CN(CCC(=O)N(C)Cc2ccccc2)CC[C@@]1(O)C1CCC1`, the cytotoxicity at 70.5 h came to 21.4%. Next, `C=C(C)CN(CC)C(=O)CN(C)C1CCc2ccccc21` (stereo unspecified): -2.32%. Next, `Cc1cnn(C2CCN(Cc3ccccc3)C2)c1N` (stereo unspecified): 16%; `CN(C)C(=O)C1CCN(Cn2nc(-c3ccc(F)cc3)oc2=O)CC1`: -5.92%. As for `CC(C)(C)OC(=O)NCC1CCCCN1Cc1cccnc1` (stereo unspecified), the cytotoxicity at 70.5 h is -0.715%. Next, `Cc1[nH]c2ccc(CNc3cc(C(N)=O)ccn3)cc2c1C`: -0.16%; `Cc1cccc(CN2CC3(CCN(C4CCOC4)CC3)OCC2=O)n1` (stereo unspecified): 0.761%; `CN(C)c1ccc(CNC(=O)NCCc2ccccn2)cn1`: -12.8%.

As to `CCN(CCCN1CCOCC1)C(=O)c1cnn(CC)c1`, the cytotoxicity at 70.5 h came out at 2.38%. Next, `CCc1cc(N2CCCC(CC)(C(=O)O)C2)nc(N2CCOCC2)n1` (stereo unspecified): 13.3%. Next, `Cc1ncsc1CN1C[C@H](OCC(C)C)[C@H]2OCCC[C@H]21`: -0.162%. Consider `CN(C)C(=O)C1(c2cnccn2)CCCN1C(=O)Cc1ccsc1` (stereo unspecified), for which the cytotoxicity at 70.5 h is -5.5%. Next, `CC(=O)NC1CCCN(Cc2ccn(C)c(=O)c2)C1` (stereo unspecified): -9.51%; `Cc1nc(C)c(CC(=O)NCc2ccc(F)cc2F)s1`: -11.3%. Next, `Cn1c(CN2CCOCC2)cc(=O)c(O)c1CN1CCCCC1`: -4.64%.

Regarding `CCc1nn(C)c(Cl)c1CN1CCN(c2ccc(Cl)nn2)CC1`, the cytotoxicity at 70.5 h was found to be 13.1%. In the case of `Cc1cn[nH]c1C1COCCN1C(=O)c1ccc2[nH]nnc2c1` (stereo unspecified), the cytotoxicity at 70.5 h was -4.19%.

Consider `COc1ccc(Cl)c(NCC(=O)NCC(=O)N2CCCC2)c1`, for which the cytotoxicity at 70.5 h was -18.4%.

Consider `Cc1ccccc1OCCC(=O)N1CCc2nc(C)n(C)c(=O)c2CC1`, for which the cytotoxicity at 70.5 h is -8.53%.

Consider `CCn1c(CN2CCCC2)nnc1C1CCN(S(=O)(=O)CC)CC1`, for which the cytotoxicity at 70.5 h was -2.53%.

With `CCC(=O)Nc1cccc(OCC(=O)N2C[C@H]3CC[C@H]2C3)c1`, the cytotoxicity at 70.5 h is -18.9%. Turning to `CC(C)N1CCC(C(=O)N2CCCN(c3ccccc3)CC2)CC1`, the cytotoxicity at 70.5 h is -8.78%. Next, `Cc1cccc(N2CC[C@@H]3[C@@H](CO[C@H]3CNC(=O)c3ccco3)C2)n1`: -0.126%; `CC(C)CC(O)C1CCN(C(=O)c2ccc(C(F)(F)F)nc2O)CC1` (stereo unspecified): -5.89%.

Regarding `O=S(=O)(N1CCCC1)N1CCc2sccc2C1`, the cytotoxicity at 70.5 h turned out to be 0.675%. Next, `CC(=O)N1CCCn2nc(CNS(=O)(=O)N3CCCCCC3)cc2C1`: -10.6%; `O=C(c1ccc[nH]1)N1CCCC1c1nc(-c2ccccc2)n[nH]1` (stereo unspecified): -1.48%.

As for `CN(Cc1ccccn1)C(=O)c1nc(S(C)(=O)=O)n2ccccc12`, the cytotoxicity at 70.5 h amounted to 1.32%. Take `CCOc1cccc(C(=O)N2CCC(c3n[nH]c(C4CC4)n3)CC2)c1`: the cytotoxicity at 70.5 h is -8.11%. Next, `CC(C)C1CN(c2ncccn2)CCC(=O)N1Cc1ccc(F)cc1` (stereo unspecified): 1.56%; `CC1(C)C[C@H](CCNC(=O)c2ccncc2)c2ccccc2O1`: -10%. Next, `Cc1nc(C)n(CC2CCCCN2Cc2nc(-c3ccco3)no2)n1` (stereo unspecified): -5.26%; `CS(=O)(=O)N1CCO[C@@H]2CN(C(=O)COC3CCCC3)C[C@@H]2C1`: 7.96%.

Turning to `CN1CCCC(c2cccc(-c3cccc(F)c3)n2)C1` (stereo unspecified), the cytotoxicity at 70.5 h was -5.53%. For the compound `Cc1n[nH]c2c1C(c1cccnc1)SCC(=O)N2` (stereo unspecified), the cytotoxicity at 70.5 h is -13.5%.

Consider `CN(C)C(=O)Cn1c(C2CC2)c(CN2CCC(O)CC2)c2cccnc21`, for which the cytotoxicity at 70.5 h is 12.5%. Next, `Cc1noc(C2CCN(Cn3cc(Br)cn3)CC2)n1`: -8.17%. `Cc1nc(NCCSc2ccccn2)c2c(C)noc2n1`: the cytotoxicity at 70.5 h was -4.96%.

Turning to `c1ccc(-n2cc(CNCC3CCCN3c3cccnn3)nn2)cc1` (stereo unspecified), the cytotoxicity at 70.5 h was -1.58%.
